Measured values as given in ChEMBL document CHEMBL3885881, “DrugMatrix”.

Organism: Rattus norvegicus
Test: DrugMatrix - Regimen: Daily Repeat
Type: toxicity, organism-based, Sprague-Dawley
Design: regimen Daily Repeat, gender Male, age 6-8 weeks
Conditions: in vivo, sc, route subcutaneous, […]; for SODIUM / TOTAL BILIRUBIN / TOTAL PROTEIN / URIC ACID / ALANINE AMINOTRANSFERASE / ALBUMIN / ALKALINE PHOSPHATASE / ASPARTATE AMINOTRANSFERASE / BLOOD UREA NITROGEN / CARBON DIOXIDE / CHLORIDE / CHOLESTEROL / CREATINE PHOSPHOKINASE / CREATININE / GLUCOSE / LACTATE DEHYDROGENASE / LIPASE / PHOSPHORUS / POTASSIUM: tissue Plasma; for ABSOLUTE BASOPHIL / ABSOLUTE EOSINOPHIL / ABSOLUTE LYMPHOCYTE / ABSOLUTE MONOCYTE / ABSOLUTE SEGMENTED NEUTROPHIL / BASOPHIL / EOSINOPHIL / ERYTHROCYTE COUNT / HEMATOCRIT / HEMOGLOBIN / LEUKOCYTE COUNT / LYMPHOCYTE / MEAN CORPUSCULAR HEMOGLOBIN / MEAN CORPUSCULAR HEMOGLOBIN CONCENTRATION / MEAN CORPUSCULAR VOLUME / MONOCYTE / NEUTROPHIL / NUCLEATED RED BLOOD CELLS / PLATELET COUNT: tissue Blood
[1] = 2 mg/kg, 120 h, dose level M2, time 5 day
[2] = 25 mg/kg, 72 h, dose level High, time 3 day
[3] = 25 mg/kg, 120 h, dose level High, time 5 day
[4] = 72 h, dose 0.25 mg/Kg, dose level M1, time 3 day
[5] = 120 h, dose 0.25 mg/Kg, dose level M1, time 5 day

C[C@]12CC[C@@H]3c4ccc(OC(=O)c5ccccc5)cc4CC[C@H]3[C@@H]1CC[C@@H]2O [ESTRADIOL BENZOATE]
SODIUM [1]: 141.87 MEQ/L
TOTAL BILIRUBIN [1]: 0.13 mg/dL
TOTAL PROTEIN [1]: 5.93 G/DL
URIC ACID [1]: 2.07 mg/dL
ABSOLUTE BASOPHIL [2]: 0 CELLS/uL
ABSOLUTE EOSINOPHIL [2]: 0 CELLS/uL
ABSOLUTE LYMPHOCYTE [2]: 7876 CELLS/uL
ABSOLUTE MONOCYTE [2]: 263 CELLS/uL
ABSOLUTE SEGMENTED NEUTROPHIL [2]: 1061 CELLS/uL
BASOPHIL [2]: 0%
EOSINOPHIL [2]: 0%
ERYTHROCYTE COUNT [2]: 5.97 x10E6/uL
HEMATOCRIT [2]: 37%
HEMOGLOBIN [2]: 13.8 G/DL
LEUKOCYTE COUNT [2]: 9.2 x10E3/uL
LYMPHOCYTE [2]: 86%
MEAN CORPUSCULAR HEMOGLOBIN [2]: 23.2 pg
MEAN CORPUSCULAR HEMOGLOBIN CONCENTRATION [2]: 37.33 G/DL
MEAN CORPUSCULAR VOLUME [2]: 62.1 fL
MONOCYTE [2]: 2.67%
NEUTROPHIL [2]: 11.33%
NUCLEATED RED BLOOD CELLS [2]: 0 /100WBC
PLATELET COUNT [2]: 1341 x10E3/uL
ALANINE AMINOTRANSFERASE [2]: 32.33 u/L
ALBUMIN [2]: 4.13 G/DL
ALKALINE PHOSPHATASE [2]: 479.33 u/L
ASPARTATE AMINOTRANSFERASE [2]: 66.67 u/L
BLOOD UREA NITROGEN [2]: 10.33 mg/dL
CARBON DIOXIDE [2]: 29 mmol/L
CHLORIDE [2]: 101.33 MEQ/L
CHOLESTEROL [2]: 26.67 mg/dL
CREATINE PHOSPHOKINASE [2]: 407.67 u/L
CREATININE [2]: 0.16 mg/dL
GLUCOSE [2]: 188.67 mg/dL
LACTATE DEHYDROGENASE [2]: 154.67 u/L
LIPASE [2]: 7.33 u/L
PHOSPHORUS [2]: 11.1 mg/dL
POTASSIUM [2]: 5.86 MEQ/L
SODIUM [2]: 141.4 MEQ/L
TOTAL BILIRUBIN [2]: 0.1 mg/dL
TOTAL PROTEIN [2]: 5.73 G/DL
URIC ACID [2]: 2 mg/dL
ABSOLUTE BASOPHIL [3]: 0 CELLS/uL
ABSOLUTE EOSINOPHIL [3]: 23.33 CELLS/uL
ABSOLUTE LYMPHOCYTE [3]: 7006.67 CELLS/uL
ABSOLUTE MONOCYTE [3]: 182 CELLS/uL
ABSOLUTE SEGMENTED NEUTROPHIL [3]: 921.33 CELLS/uL
BASOPHIL [3]: 0%
EOSINOPHIL [3]: 0.33%
ERYTHROCYTE COUNT [3]: 5.89 x10E6/uL
HEMATOCRIT [3]: 35%
HEMOGLOBIN [3]: 13.6 G/DL
LEUKOCYTE COUNT [3]: 8.13 x10E3/uL
LYMPHOCYTE [3]: 86.33%
MEAN CORPUSCULAR HEMOGLOBIN [3]: 23.13 pg
MEAN CORPUSCULAR HEMOGLOBIN CONCENTRATION [3]: 38.9 G/DL
MEAN CORPUSCULAR VOLUME [3]: 59.43 fL
MONOCYTE [3]: 2.67%
NEUTROPHIL [3]: 10.67%
NUCLEATED RED BLOOD CELLS [3]: 0 /100WBC
PLATELET COUNT [3]: 988.67 x10E3/uL
ALANINE AMINOTRANSFERASE [3]: 53 u/L
ALBUMIN [3]: 5.07 G/DL
ALKALINE PHOSPHATASE [3]: 360 u/L
ASPARTATE AMINOTRANSFERASE [3]: 106.33 u/L
BLOOD UREA NITROGEN [3]: 14 mg/dL
CARBON DIOXIDE [3]: 27.33 mmol/L
CHLORIDE [3]: 98.67 MEQ/L
CHOLESTEROL [3]: 32.67 mg/dL
CREATINE PHOSPHOKINASE [3]: 366.33 u/L
CREATININE [3]: 0.19 mg/dL
GLUCOSE [3]: 130.67 mg/dL
LACTATE DEHYDROGENASE [3]: 223.33 u/L
LIPASE [3]: 7.67 u/L
PHOSPHORUS [3]: 11.37 mg/dL
POTASSIUM [3]: 5.61 MEQ/L
SODIUM [3]: 143.3 MEQ/L
TOTAL BILIRUBIN [3]: 0.1 mg/dL
TOTAL PROTEIN [3]: 7.6 G/DL
URIC ACID [3]: 2.1 mg/dL
ABSOLUTE BASOPHIL [4]: 0 CELLS/uL
ABSOLUTE EOSINOPHIL [4]: 0 CELLS/uL
ABSOLUTE LYMPHOCYTE [4]: 8002.33 CELLS/uL
ABSOLUTE MONOCYTE [4]: 146.33 CELLS/uL
ABSOLUTE SEGMENTED NEUTROPHIL [4]: 218 CELLS/uL
BASOPHIL [4]: 0%
EOSINOPHIL [4]: 0%
ERYTHROCYTE COUNT [4]: 6.05 x10E6/uL
HEMATOCRIT [4]: 38.6%
HEMOGLOBIN [4]: 15.03 G/DL
LEUKOCYTE COUNT [4]: 8.37 x10E3/uL
LYMPHOCYTE [4]: 95.67%
MEAN CORPUSCULAR HEMOGLOBIN [4]: 24.83 pg
MEAN CORPUSCULAR HEMOGLOBIN CONCENTRATION [4]: 39.03 G/DL
MEAN CORPUSCULAR VOLUME [4]: 63.73 fL
MONOCYTE [4]: 1.67%
NEUTROPHIL [4]: 2.67%
NUCLEATED RED BLOOD CELLS [4]: 0 /100WBC
PLATELET COUNT [4]: 1109.67 x10E3/uL
ALANINE AMINOTRANSFERASE [4]: 61.67 u/L
ALBUMIN [4]: 4.2 G/DL
ALKALINE PHOSPHATASE [4]: 323.67 u/L
ASPARTATE AMINOTRANSFERASE [4]: 81.33 u/L
BLOOD UREA NITROGEN [4]: 11.33 mg/dL
CARBON DIOXIDE [4]: 26.33 mmol/L
CHOLESTEROL [4]: 75.67 mg/dL
CREATINE PHOSPHOKINASE [4]: 295 u/L
CREATININE [4]: 0.23 mg/dL
GLUCOSE [4]: 126 mg/dL
LACTATE DEHYDROGENASE [4]: 285.67 u/L
LIPASE [4]: 12.33 u/L
PHOSPHORUS [4]: 10.4 mg/dL
TOTAL BILIRUBIN [4]: 0.1 mg/dL
TOTAL PROTEIN [4]: 6.03 G/DL
URIC ACID [4]: 0.43 mg/dL
ABSOLUTE BASOPHIL [5]: 0 CELLS/uL
ABSOLUTE EOSINOPHIL [5]: 45.33 CELLS/uL
ABSOLUTE LYMPHOCYTE [5]: 12282.67 CELLS/uL
ABSOLUTE MONOCYTE [5]: 135 CELLS/uL
ABSOLUTE SEGMENTED NEUTROPHIL [5]: 937 CELLS/uL
BASOPHIL [5]: 0%
EOSINOPHIL [5]: 0.33%
ERYTHROCYTE COUNT [5]: 5.99 x10E6/uL
HEMATOCRIT [5]: 37.83%
HEMOGLOBIN [5]: 14.7 G/DL
LEUKOCYTE COUNT [5]: 13.4 x10E3/uL
LYMPHOCYTE [5]: 91.67%
MEAN CORPUSCULAR HEMOGLOBIN [5]: 24.53 pg
MEAN CORPUSCULAR HEMOGLOBIN CONCENTRATION [5]: 38.87 G/DL
MEAN CORPUSCULAR VOLUME [5]: 63.13 fL
MONOCYTE [5]: 1%
NEUTROPHIL [5]: 7%
NUCLEATED RED BLOOD CELLS [5]: 0 /100WBC
PLATELET COUNT [5]: 1305.33 x10E3/uL
ALANINE AMINOTRANSFERASE [5]: 47.67 u/L
ALBUMIN [5]: 4 G/DL
ALKALINE PHOSPHATASE [5]: 486.33 u/L
ASPARTATE AMINOTRANSFERASE [5]: 78.33 u/L
BLOOD UREA NITROGEN [5]: 15.33 mg/dL
CARBON DIOXIDE [5]: 22.67 mmol/L
CHLORIDE [5]: 104.33 MEQ/L
CHOLESTEROL [5]: 33 mg/dL
CREATINE PHOSPHOKINASE [5]: 654 u/L
CREATININE [5]: 0.27 mg/dL
GLUCOSE [5]: 190 mg/dL
LACTATE DEHYDROGENASE [5]: 308 u/L
LIPASE [5]: 9 u/L
PHOSPHORUS [5]: 12.63 mg/dL
POTASSIUM [5]: 4.9 MEQ/L
SODIUM [5]: 143.3 MEQ/L
TOTAL BILIRUBIN [5]: 0.1 mg/dL
TOTAL PROTEIN [5]: 5.73 G/DL
URIC ACID [5]: 1.6 mg/dL
